Measurements published in patent publication US20100311580A1, “Active Compound Combinations” (Bayer CropScience AG, priority 2007, published 2010).

Experiments:
Assay type in all cases: in vivo
Nilaparvata lugens = Nilaparvata lugens test (spray on rice plants); details: larvae
Experimental: Solvent: 7 parts by weight of dimethylformamide Emulsifier: 2 parts by weight of alkylaryl polyglycolether
(§1) To produce a suitable preparation of active compound, 1 part by weight of active compound is mixed with the stated amount of solvent and emulsifier, and the concentrate is diluted with emulsifier-containing water to the desired concentration.
Rice plants (Oryza sativa) are treated by being sprayed with the preparation of the active compound at the desired concentration and are infested with larvae of the Brown plant hopper (Nilaparvata lugens) as long as the leaves are still moist.
After the specified period of time, the mortality in % is determined. 100% means that all the hopper larvae have been killed; 0% means that none of the hopper larvae have been killed.

Phaedon cochleariae = Phaedon cochleariae test (spray on cabbage leaves); details: larvae
Experimental: Solvent: 7 parts by weight of dimethylformamide
Emulsifier: 2 parts by weight of alkylaryl polyglycolether
as §1
Cabbage leaves (Brassica oleracea) are treated by being sprayed with the preparation of the active compound at the desired concentration and are infested with larvae of the mustard beetle (Phaedon cochleariae) as long as the leaves are still moist.
After the specified period of time, the mortality in % is determined. 100% means that all the beetle larvae have been killed; 0% means that none of the beetle larvae have been killed.

[1] = system: Blumeria graminis f. sp. hordei; test: Blumeria test (barley)/SAR 5d; details: 1000 ppm, inoculation 5 days after spraying, evaluated 7 days after inoculation
Experimental: Solvent: 50 parts by weight of n,n-dimethylacetamid Emulsifier: 1 part by weight of alkylaryl polyglycol ether
To produce a suitable preparation of active compound, 1 part by weight of active compound or active compound combination is mixed with the stated amounts of solvent and emulsifier, and the concentrate is diluted with water to the desired concentration.
To test for systemic activated resistance, young plants are sprayed with the preparation of active compound or active compound combination at the stated rate of application. After the spray coating has dried on, the plants are placed in a greenhouse at a temperature of approximately 18° C. and a relative atmospheric humidity of approximately 80%.
5 days after spraying, the plants are dusted with spores of Blumeria graminis f. sp. hordei. The plants then remain in a greenhouse at a temperature of approximately 18° C. and a relative atmospheric humidity of approximately 80% to promote the development of mildew pustules.
The test is evaluated 7 days after the inoculation, 1. and 2. leaf separated. 0% means an efficacy with corresponds to that of the control while an efficacy of 100% means that no disease is observed.

SMILES	Efficacy in % ([1]; 1st leaf) [%]	Efficacy in % ([1]; 2nd leaf) [%]	Efficacy in % after 3 d (mortality) (Phaedon cochleariae; 4 ppm) [%]	also measured
N#Cc1ccccc1NC(=O)c1snc(Cl)c1Cl [Isotianil, 3,4-dichloro-N-(2-cyanophenyl)-5-isothiazolecarboxamide]	44	44	–	Efficacy in % after 3 d (mortality) (Nilaparvata lugens; 200 ppm): 0%; Efficacy in % after 3 d (mortality) (Phaedon cochleariae; 200 ppm): 0%; Efficacy in % after 6 d (mortality) (Phaedon cochleariae; 200 ppm): 0%
O=[N+]([O-])NC1=NCCN1Cc1ccc(Cl)nc1 [Imidacloprid, imidacloprid]	–	–	–	Efficacy in % after 3 d (mortality) (Nilaparvata lugens; 0.8 ppm): 0%
N#C/N=C1\SCCN1Cc1ccc(Cl)nc1 [Thiacloprid, thiacloprid]	–	–	5	–
CN/C(=N\[N+](=O)[O-])NCc1cnc(Cl)s1 [Clothianidin, clothianidin]	–	–	15	–
Cc1cc(C(F)(C(F)(F)F)C(F)(F)F)ccc1NC(=O)c1cccc(I)c1C(=O)NC(C)(C)CS(C)(=O)=O [Flubendiamide, flubendiamide]	22	22	0	Efficacy in % after 3 d (mortality) (Nilaparvata lugens; 0.16 ppm): 0%; Efficacy in % after 3 d (mortality) (Phaedon cochleariae; 0.8 ppm): 0%; Efficacy in % after 6 d (mortality) (Phaedon cochleariae; 4 ppm): 0%
